Reference: PubChem BioAssay (NCI)
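These data come from cells grown in 96-well plates and exposed to compound for 48 hours at five concentrations. The concentration for 50% growth inhibition is given as GI50. TGI marks complete inhibition of growth.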

How the values were obtained:
Test in all cases: NCI anticancer screen, dose series, 48 h
RPMI-8226 leukemia = tested on: RPMI-8226 leukemia
K-562 leukemia = tested on: K-562 leukemia
HL-60(TB) leukemia = tested on: HL-60(TB) leukemia
HCC-2998 colon = tested on: HCC-2998 colon
MALME-3M melanoma = tested on: MALME-3M melanoma
IGROV1 ovarian = tested on: IGROV1 ovarian
BT-549 breast = tested on: BT-549 breast
SN12C renal = tested on: SN12C renal
MDA-MB-231 breast = tested on: MDA-MB-231 breast
SNB-75 CNS = tested on: SNB-75 CNS
KM12 colon = tested on: KM12 colon
MDA-MB-435 = tested on: MDA-MB-435
OVCAR-4 ovarian = tested on: OVCAR-4 ovarian
CAKI-1 renal = tested on: CAKI-1 renal
SF-539 CNS = tested on: SF-539 CNS
SK-OV-3 ovarian = tested on: SK-OV-3 ovarian
HCT-116 colon = tested on: HCT-116 colon
M14 melanoma = tested on: M14 melanoma
UO-31 renal = tested on: UO-31 renal
OVCAR-8 ovarian = tested on: OVCAR-8 ovarian
SK-MEL-5 melanoma = tested on: SK-MEL-5 melanoma
HOP-62 NSCLC = tested on: HOP-62 NSCLC
NCI-H226 lung = tested on: NCI-H226 lung
U251 CNS = tested on: U251 CNS
RXF 393 renal = tested on: RXF 393 renal
SK-MEL-28 melanoma = tested on: SK-MEL-28 melanoma
COLO 205 colon = tested on: COLO 205 colon
HS 578T breast = tested on: HS 578T breast
SNB-19 CNS = tested on: SNB-19 CNS
SW-620 colon = tested on: SW-620 colon
UACC-257 melanoma = tested on: UACC-257 melanoma
A498 renal = tested on: A498 renal
UACC-62 melanoma = tested on: UACC-62 melanoma
T-47D breast = tested on: T-47D breast
NCI/ADR-RES ovarian = tested on: NCI/ADR-RES ovarian
HT29 colon = tested on: HT29 colon
NCI-H460 lung = tested on: NCI-H460 lung
OVCAR-5 ovarian = tested on: OVCAR-5 ovarian
SF-268 CNS = tested on: SF-268 CNS
ACHN renal = tested on: ACHN renal
PC-3 prostate = tested on: PC-3 prostate
MOLT-4 leukemia = tested on: MOLT-4 leukemia
SR leukemia = tested on: SR leukemia
MCF7 breast = tested on: MCF7 breast
HCT-15 colon = tested on: HCT-15 colon
HOP-92 NSCLC = tested on: HOP-92 NSCLC
SF-295 CNS = tested on: SF-295 CNS
DU-145 prostate = tested on: DU-145 prostate
TK-10 renal = tested on: TK-10 renal
CCRF-CEM leukemia = tested on: CCRF-CEM leukemia
LOX IMVI melanoma = tested on: LOX IMVI melanoma
NCI-H522 lung = tested on: NCI-H522 lung
SK-MEL-2 melanoma = tested on: SK-MEL-2 melanoma
OVCAR-3 ovarian = tested on: OVCAR-3 ovarian
EKVX NSCLC = tested on: EKVX NSCLC
A549 NSCLC = tested on: A549 NSCLC
NCI-H23 lung = tested on: NCI-H23 lung

Q: Which GI50 (RPMI-8226 leukemia) does the source give for `COc1ccc2cnc(N)c(C#Cc3cc(C(=O)Nc4ccc(CN5CCN(C)CC5)c(C(F)(F)F)c4)cnc3C)c2c1` here?
A: 2.55 µM

Q: What about the TGI (RPMI-8226 leukemia) of the same molecule?
A: 23.1 µM

Q: And the GI50 (K-562 leukemia)?
A: 0.005 µM

Q: And the TGI (K-562 leukemia)?
A: 0.749 µM

Q: And the GI50 (HL-60(TB) leukemia)?
A: 1.07 µM

Q: What about the TGI (HL-60(TB) leukemia) of the same molecule?
A: > 50 µM

Q: And the GI50 (HCC-2998 colon)?
A: > 37.2 µM

Q: And the TGI (HCC-2998 colon)?
A: > 50 µM

Q: And the GI50 (MALME-3M melanoma)?
A: 0.0708 µM

Q: And the TGI (MALME-3M melanoma)?
A: 1.83 µM

Q: And the GI50 (IGROV1 ovarian)?
A: 0.318 µM

Q: And the TGI (IGROV1 ovarian)?
A: > 40.2 µM

Q: What about the GI50 (BT-549 breast) of the same molecule?
A: 4.22 µM

Q: And the TGI (BT-549 breast)?
A: 16.4 µM

Q: And the GI50 (SN12C renal)?
A: 0.49 µM

Q: What about the TGI (SN12C renal) of the same molecule?
A: > 25.3 µM

Q: And the GI50 (MDA-MB-231 breast)?
A: 0.158 µM

Q: What about the TGI (MDA-MB-231 breast) of the same molecule?
A: 3.91 µM

Q: And the GI50 (SNB-75 CNS)?
A: 0.801 µM

Q: And the TGI (SNB-75 CNS)?
A: 8.9 µM

Q: What about the GI50 (KM12 colon) of the same molecule?
A: 0.005 µM

Q: What about the TGI (KM12 colon) of the same molecule?
A: 9.24 µM

Q: And the GI50 (MDA-MB-435)?
A: 0.24 µM

Q: And the TGI (MDA-MB-435)?
A: 6.99 µM

Q: And the GI50 (OVCAR-4 ovarian)?
A: 1.71 µM

Q: What about the TGI (OVCAR-4 ovarian) of the same molecule?
A: 14.6 µM

Q: What about the GI50 (CAKI-1 renal) of the same molecule?
A: 1.56 µM

Q: What about the TGI (CAKI-1 renal) of the same molecule?
A: 9.25 µM

Q: What about the GI50 (SF-539 CNS) of the same molecule?
A: 0.974 µM

Q: And the TGI (SF-539 CNS)?
A: 7.91 µM

Q: What about the GI50 (SK-OV-3 ovarian) of the same molecule?
A: > 21.1 µM

Q: And the TGI (SK-OV-3 ovarian)?
A: > 50 µM

Q: What about the GI50 (HCT-116 colon) of the same molecule?
A: 0.498 µM

Q: What about the TGI (HCT-116 colon) of the same molecule?
A: 9.88 µM

Q: And the GI50 (M14 melanoma)?
A: 0.124 µM

Q: What about the TGI (M14 melanoma) of the same molecule?
A: 5.35 µM

Q: And the GI50 (UO-31 renal)?
A: 0.412 µM

Q: And the TGI (UO-31 renal)?
A: 1.22 µM

Q: What about the GI50 (OVCAR-8 ovarian) of the same molecule?
A: 9.33 µM

Q: What about the TGI (OVCAR-8 ovarian) of the same molecule?
A: > 28.9 µM

Q: What about the GI50 (SK-MEL-5 melanoma) of the same molecule?
A: 1.06 µM

Q: What about the TGI (SK-MEL-5 melanoma) of the same molecule?
A: 7.9 µM

Q: What about the GI50 (HOP-62 NSCLC) of the same molecule?
A: 1.19 µM

Q: What about the TGI (HOP-62 NSCLC) of the same molecule?
A: > 18.8 µM

Q: And the GI50 (NCI-H226 lung)?
A: 0.383 µM

Q: What about the TGI (NCI-H226 lung) of the same molecule?
A: 2.59 µM

Q: And the GI50 (U251 CNS)?
A: 1.08 µM

Q: And the TGI (U251 CNS)?
A: 2.81 µM

Q: What about the GI50 (RXF 393 renal) of the same molecule?
A: 0.488 µM

Q: And the TGI (RXF 393 renal)?
A: 1.28 µM

Q: What about the GI50 (SK-MEL-28 melanoma) of the same molecule?
A: 0.372 µM

Q: And the TGI (SK-MEL-28 melanoma)?
A: 1.29 µM

Q: And the GI50 (COLO 205 colon)?
A: 0.208 µM

Q: What about the TGI (COLO 205 colon) of the same molecule?
A: > 50 µM

Q: What about the GI50 (HS 578T breast) of the same molecule?
A: 0.269 µM

Q: And the TGI (HS 578T breast)?
A: 1.5 µM

Q: And the GI50 (SNB-19 CNS)?
A: 3.71 µM

Q: What about the TGI (SNB-19 CNS) of the same molecule?
A: 14.7 µM

Q: And the GI50 (SW-620 colon)?
A: 0.692 µM

Q: What about the TGI (SW-620 colon) of the same molecule?
A: 6.25 µM

Q: What about the GI50 (UACC-257 melanoma) of the same molecule?
A: 1.2 µM

Q: What about the TGI (UACC-257 melanoma) of the same molecule?
A: 14.4 µM

Q: What about the GI50 (A498 renal) of the same molecule?
A: 0.68 µM

Q: And the TGI (A498 renal)?
A: 3.04 µM

Q: And the GI50 (UACC-62 melanoma)?
A: 0.19 µM

Q: What about the TGI (UACC-62 melanoma) of the same molecule?
A: 4.2 µM

Q: And the GI50 (T-47D breast)?
A: > 50 µM

Q: And the TGI (T-47D breast)?
A: > 50 µM

Q: What about the GI50 (NCI/ADR-RES ovarian) of the same molecule?
A: 10.3 µM

Q: And the TGI (NCI/ADR-RES ovarian)?
A: > 34.7 µM

Q: What about the GI50 (HT29 colon) of the same molecule?
A: 0.112 µM

Q: What about the TGI (HT29 colon) of the same molecule?
A: 6.01 µM

Q: And the GI50 (NCI-H460 lung)?
A: 1.23 µM

Q: And the TGI (NCI-H460 lung)?
A: 4.46 µM

Q: What about the GI50 (OVCAR-5 ovarian) of the same molecule?
A: 0.64 µM

Q: And the TGI (OVCAR-5 ovarian)?
A: 1.73 µM

Q: And the GI50 (SF-268 CNS)?
A: 2.68 µM

Q: And the TGI (SF-268 CNS)?
A: > 29.6 µM

Q: What about the GI50 (ACHN renal) of the same molecule?
A: 0.449 µM

Q: What about the TGI (ACHN renal) of the same molecule?
A: 3.54 µM

Q: And the GI50 (PC-3 prostate)?
A: 2.69 µM

Q: What about the TGI (PC-3 prostate) of the same molecule?
A: 9.17 µM

Q: And the GI50 (MOLT-4 leukemia)?
A: 0.906 µM

Q: What about the TGI (MOLT-4 leukemia) of the same molecule?
A: 26.8 µM

Q: What about the GI50 (SR leukemia) of the same molecule?
A: 0.707 µM

Q: And the TGI (SR leukemia)?
A: 2.86 µM

Q: What about the GI50 (MCF7 breast) of the same molecule?
A: 1.43 µM

Q: What about the TGI (MCF7 breast) of the same molecule?
A: 22.2 µM

Q: And the GI50 (HCT-15 colon)?
A: 1.69 µM

Q: What about the TGI (HCT-15 colon) of the same molecule?
A: 12.9 µM

Q: And the GI50 (HOP-92 NSCLC)?
A: 0.0629 µM

Q: What about the TGI (HOP-92 NSCLC) of the same molecule?
A: 0.796 µM

Q: And the GI50 (SF-295 CNS)?
A: 9.47 µM

Q: And the TGI (SF-295 CNS)?
A: > 33.7 µM

Q: What about the GI50 (DU-145 prostate) of the same molecule?
A: 2.43 µM

Q: And the TGI (DU-145 prostate)?
A: 10.1 µM

Q: And the GI50 (TK-10 renal)?
A: 3.22 µM

Q: And the TGI (TK-10 renal)?
A: 12.4 µM

Q: And the GI50 (CCRF-CEM leukemia)?
A: 1.97 µM

Q: What about the TGI (CCRF-CEM leukemia) of the same molecule?
A: 13.1 µM

Q: And the GI50 (LOX IMVI melanoma)?
A: 0.153 µM

Q: And the TGI (LOX IMVI melanoma)?
A: 8.93 µM

Q: What about the GI50 (NCI-H522 lung) of the same molecule?
A: 7.81 µM

Q: And the TGI (NCI-H522 lung)?
A: 32.9 µM

Q: What about the GI50 (SK-MEL-2 melanoma) of the same molecule?
A: 3.59 µM

Q: What about the TGI (SK-MEL-2 melanoma) of the same molecule?
A: 14.6 µM

Q: And the GI50 (OVCAR-3 ovarian)?
A: 11.4 µM

Q: What about the TGI (OVCAR-3 ovarian) of the same molecule?
A: > 50 µM

Q: What about the GI50 (EKVX NSCLC) of the same molecule?
A: 3.66 µM

Q: What about the TGI (EKVX NSCLC) of the same molecule?
A: 19.4 µM

Q: And the GI50 (A549 NSCLC)?
A: 6.59 µM

Q: What about the TGI (A549 NSCLC) of the same molecule?
A: > 26.9 µM

Q: What about the GI50 (NCI-H23 lung) of the same molecule?
A: 1.48 µM

Q: And the TGI (NCI-H23 lung)?
A: 12.5 µM
